Experimental data from US20150284385A1, “CERTAIN DIPEPTIDYL PEPTIDASE INHIBITORS” (SHANGHAI FOCHON PHARMACEUTICAL CO LTD, priority 2012, published 2015).
Like-named read-outs stand apart in the source and are kept apart here. Each block holds one molecule with its values, some of them ahead of it.

What was measured:
Recombinant human DPP-IV = Recombinant human DPP-IV (Homo sapiens, UniProt P27487); assay: DPP-IV assay in vitro (H-Ala-Pro-AFC fluorescence); format: biochemical; conditions: 30 min pre-incubation, H-Ala-Pro-AFC 50 μM
Experimental: DPP-IV Assay Solutions of test compounds in varying concentrations (10^−5 mol/L, 10^−6 mol/L, 10^−7 mol/L, 10^−8 mol/L, 10^−9 mol/L, 10^−10 mol/L, 10^−11 mol/L, and 10^−12 mol/L) were prepared in dimethyl sulfoxide (DMSO) and then diluted into assay buffer comprising: 10 mM Tris-HCl pH 8.0, 0.2 M NaCl, and 0.1% BSA. Recombinant human DPP-IV (7.8 ng/ml final concentration) was added to the dilutions and pre-incubated for 30 mins at room temperature before the reaction was initiated with H-Ala-Pro-AFC (50 μM final concentration). The total volume of the reaction mixture was 100 μl.
Inhibition constants (IC50) were calculated by GraphPad Prism.

DPP-4 = target: T1, DPP-4 (Mus musculus, UniProt P28843); assay: Plasma DPP-4 activity in mice after oral dosing; format: in vivo, ICR mice; conditions: read-out: DPP-4 Relative activity %; for activity at 1 mg/kg: oral 1 mg/kg; for activity at 3 mg/kg: mice plasma, oral 3 mg/kg
T1 construct: Blood sample was processed to obtain plasma; from tissue; host or cells: plasma of male ICR mice
Experimental: Some of the exemplary compounds were tested in mice to assess inhibition of DPP-4 activity via plasma DPP-4 activity. Male ICR mice (25-30 g) were used for this study. All the mice were fasted at least 3 hours before study. Mice (n=6/group) received vehicle or at least one of the exemplary compounds by oral gavage. The dosing solutions were 0.15 mg/ml for the 3 mg/kg. Dosing volume was 20 mL/kg of body weight for all doses. The vehicle was distilled water. […] Blood sample was processed to obtain plasma (2000 g, 5 min, 4° C.) within 15 min after sampling.
Plasma was collected and tested by fluoremetry. Before the testing, 80 mM MgCl2 buffer was added into the 5 uL serum samples and pre-incubation for 5 minutes at room temperature, then […] of 0.1 mM substrate Gly-Pro-AMC and 20 μL of buffer were added into them. The fluorescence of the mixture was measured every 3 minutes after mixing (excitation at 380 nm; emission at 460 nm). After 6 times of measurements, a time-fluorescence cure was obtained. The slope of the curve would be the activity of DPP-4 in serum. The DPP-4 activity before administration was 100%. The relative activity of DPP-4 in serum was calculated using the formula below:
Relative DPP-4activity=DPP-4activity after dosing/DPP-4activity before dosing×100%.

T1 sequence (P28843 37-760 limits assumed): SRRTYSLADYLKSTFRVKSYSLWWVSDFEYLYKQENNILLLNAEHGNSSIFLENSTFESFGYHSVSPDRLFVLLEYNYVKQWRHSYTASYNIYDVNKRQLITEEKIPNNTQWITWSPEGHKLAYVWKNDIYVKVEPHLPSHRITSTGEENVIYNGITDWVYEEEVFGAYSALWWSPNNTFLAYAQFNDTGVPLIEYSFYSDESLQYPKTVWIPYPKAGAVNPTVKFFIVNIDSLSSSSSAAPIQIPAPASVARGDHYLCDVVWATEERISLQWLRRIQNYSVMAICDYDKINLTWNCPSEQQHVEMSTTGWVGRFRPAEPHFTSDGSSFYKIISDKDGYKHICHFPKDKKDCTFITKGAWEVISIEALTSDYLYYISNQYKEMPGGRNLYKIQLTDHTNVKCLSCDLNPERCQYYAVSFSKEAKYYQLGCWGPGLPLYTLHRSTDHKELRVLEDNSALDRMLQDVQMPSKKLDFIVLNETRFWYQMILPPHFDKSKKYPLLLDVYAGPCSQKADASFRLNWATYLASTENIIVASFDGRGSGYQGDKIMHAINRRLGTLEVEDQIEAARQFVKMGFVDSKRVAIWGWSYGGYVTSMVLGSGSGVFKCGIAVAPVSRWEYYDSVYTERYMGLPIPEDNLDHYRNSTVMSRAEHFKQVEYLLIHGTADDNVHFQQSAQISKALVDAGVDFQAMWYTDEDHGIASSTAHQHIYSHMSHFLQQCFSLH
Recombinant human DPP-IV, sequence (P27487 whole entry): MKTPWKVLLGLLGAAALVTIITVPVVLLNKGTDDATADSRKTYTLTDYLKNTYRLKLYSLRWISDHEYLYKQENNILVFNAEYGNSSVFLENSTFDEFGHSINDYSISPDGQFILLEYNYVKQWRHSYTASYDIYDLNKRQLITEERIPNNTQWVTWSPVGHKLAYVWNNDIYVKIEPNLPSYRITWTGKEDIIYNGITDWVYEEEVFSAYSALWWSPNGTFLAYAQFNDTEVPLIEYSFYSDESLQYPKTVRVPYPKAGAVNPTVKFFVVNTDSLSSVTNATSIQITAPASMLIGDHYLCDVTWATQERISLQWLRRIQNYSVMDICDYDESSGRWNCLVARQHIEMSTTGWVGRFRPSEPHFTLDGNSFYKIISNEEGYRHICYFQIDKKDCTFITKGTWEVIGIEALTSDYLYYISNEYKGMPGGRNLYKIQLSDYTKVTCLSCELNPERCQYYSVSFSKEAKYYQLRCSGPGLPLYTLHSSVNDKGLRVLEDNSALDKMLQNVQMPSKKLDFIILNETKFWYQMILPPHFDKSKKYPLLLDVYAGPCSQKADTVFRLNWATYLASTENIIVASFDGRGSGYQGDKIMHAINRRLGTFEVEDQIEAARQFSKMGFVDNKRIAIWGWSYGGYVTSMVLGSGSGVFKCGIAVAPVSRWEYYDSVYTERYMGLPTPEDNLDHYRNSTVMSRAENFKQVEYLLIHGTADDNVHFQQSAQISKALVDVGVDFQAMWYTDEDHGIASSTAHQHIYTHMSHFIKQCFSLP

IC50 (Recombinant human DPP-IV): 3 nM
activity at 1 mg/kg (DPP-4; Table 3, mice plasma, 1 h after dosing): 9 ± 1.4%
activity at 1 mg/kg (DPP-4; Table 3, mice plasma, 2 h after dosing): 11.5 ± 1.1%
activity at 1 mg/kg (DPP-4; Table 3, mice plasma, 4 h after dosing): 10.9 ± 2.8%
activity at 1 mg/kg (DPP-4; Table 3, mice plasma, 6 h after dosing): 11.5 ± 0.5%
activity at 1 mg/kg (DPP-4; Table 3, mice plasma, 9 h after dosing): 10 ± 1.3%
activity at 1 mg/kg (DPP-4; Table 3, mice plasma, 12 h after dosing): 11 ± 2%
activity at 1 mg/kg (DPP-4; Table 3, mice plasma, 24 h after dosing): 14.5 ± 2.2%
activity at 1 mg/kg (DPP-4; Table 4 Test 1, mice plasma, 1 h after dosing): 9 ± 1.4%
activity at 1 mg/kg (DPP-4; Table 4 Test 1, mice plasma, 2 h after dosing): 11.5 ± 1.1%
activity at 1 mg/kg (DPP-4; Table 4 Test 1, mice plasma, 4 h after dosing): 10.9 ± 2.8%
activity at 1 mg/kg (DPP-4; Table 4 Test 1, mice plasma, 6 h after dosing): 11.5 ± 0.5%
activity at 1 mg/kg (DPP-4; Table 4 Test 1, mice plasma, 9 h after dosing): 10 ± 1.3%
activity at 1 mg/kg (DPP-4; Table 4 Test 1, mice plasma, 12 h after dosing): 11 ± 2.2%
activity at 1 mg/kg (DPP-4; Table 4 Test 1, mice plasma, 24 h after dosing): 14.5 ± 2.2%
SMILES: Cn1nnc(-c2ccn3c4c(nc3c2)C[C@H](c2cc(F)c(F)cc2F)[C@@H](N)C4)n1 [Example 11, (7R,8S)-3-(2-methyl-2H-tetrazol-5-yl)-7-(2,4,5-trifluorophenyl)-6,7,8,9-tetrahydrobenzo[4,5]imidazo[1,2-a]pyridin-8-amine]

IC50 (Recombinant human DPP-IV): 0.8 nM
activity at 1 mg/kg (DPP-4; Table 4 Test 3, mice plasma, 1 h after dosing): 11.9 ± 1.2%
activity at 1 mg/kg (DPP-4; Table 4 Test 3, mice plasma, 2 h after dosing): 7.4 ± 1%
activity at 1 mg/kg (DPP-4; Table 4 Test 3, mice plasma, 4 h after dosing): 8.6 ± 0.8%
activity at 1 mg/kg (DPP-4; Table 4 Test 3, mice plasma, 6 h after dosing): 8.4 ± 1.3%
activity at 1 mg/kg (DPP-4; Table 4 Test 3, mice plasma, 9 h after dosing): 9 ± 1.2%
activity at 1 mg/kg (DPP-4; Table 4 Test 3, mice plasma, 12 h after dosing): 8.8 ± 0.9%
activity at 1 mg/kg (DPP-4; Table 4 Test 3, mice plasma, 24 h after dosing): 14.4 ± 1.8%
activity at 3 mg/kg (DPP-4; 1 h after dosing): 38.7 ± 4.2%
activity at 3 mg/kg (DPP-4; 2 h after dosing): 34.9 ± 3%
activity at 3 mg/kg (DPP-4; 3 h after dosing): 31.2 ± 2.3%
activity at 3 mg/kg (DPP-4; 5 h after dosing): 39.2 ± 3.3%
SMILES: N[C@H]1Cc2c(nc3cc(-c4nnco4)ccn23)C[C@@H]1c1cc(F)c(F)cc1F [Example 1, (7R,8S)-3-(1,3,4-Oxadiazol-2-yl)-7-(2,4,5-trifluorophenyl)-6,7,8,9-tetrahydrobenzo[4,5]imidazo[1,2-a]pyridine-8-amine]
